# Test results taken from US11492405B2, “Reducing systemic regulatory t cell levels or activity for treatment of disease and injury of the CNS” (Yeda Research and Development Co. Ltd, priority 2014, dated 2022).
# Entries after “also recorded” stand apart in the source; their conditions may differ.
# What was measured:
# Type in all cases: in vivo, mouse
# 5XFAD AD-Tg mice [1] = assay: GFAP immunostaining (hippocampal astrogliosis) in 5XFAD AD-Tg mice; details: AD-Tg/Foxp3-DTR+ mice, 3 weeks after last DTx injection
# Experimental: Tissue processing and immunohistochemistry were performed on paraffin embedded sectioned mouse (6 μm thick) and human (10 μm thick) brains. For human ICAM-1 staining, primary mouse anti-ICAM (1:20 Abcam; ab2213) antibody was used. Slides were incubated for 10 min with 3% H2O2, and a secondary biotin-conjugated anti-mouse antibody was used, followed by biotin/avidin amplification with Vectastain ABC kit (Vector Laboratories). Subsequently, 3,3′-diaminobenzidine (DAB substrate) (Zytomed kit) was applied; slides were dehydrated and mounted with xylene-based mounting solution. For tissue stainings, mice were transcardially perfused with PBS prior to tissue excision and fixation. CP tissues were isolated under a dissecting microscope (Stemi DV4; Zeiss) from the lateral, third, and fourth ventricles of the brain. […] Microscopic analysis, was performed using a fluorescence microscope (E800; Nikon) or laser-scanning confocal microscope (Carl Zeiss, Inc.). The fluorescence microscope was equipped with a digital camera (DXM 1200F; Nikon), and with either a 20×NA 0.50 or 40×NA 0.75 objective lens (Plan Fluor; Nikon). […] For quantification of staining intensity, total cell and background staining was measured using ImageJ software (NIH), and intensity of specific staining was calculated, as previously described (Burgess et al, 2010). […]
# 5XFAD AD-Tg mice [2] = assay: Flow cytometry of splenocytes in 5XFAD AD-Tg mice; details: weekly-GA, end of 1st week (two GA injections)
# Experimental: Mice were transcardially perfused with PBS, and tissues were treated as previously described (Baruch et al, 2013). Brains were dissected and the different brain regions were removed under a dissecting microscope (Stemi DV4; Zeiss) in PBS, and tissues were dissociated using the gentleMACS™ dissociator (Miltenyi Biotec). Choroid plexus tissues were isolated from the lateral, third and fourth ventricles of the brain, incubated at 37° C. for 45 min in PBS (with Ca^2+/Mg^2+) containing 400 U/ml collagenase type IV (Worthington Biochemical Corporation), and then manually homogenized by pipetting. Spleens were mashed with the plunger of a syringe and treated with ACK (ammonium chloride potassium) lysing buffer to remove erythrocytes. In all cases, samples were stained according to the manufacturers' protocols. All samples were filtered through a 70 μm nylon mesh, and blocked with anti-Fc CD16/32 (1:100; BD Biosciences). For intracellular staining of IFN-γ, the cells were incubated with […] (10 ng/ml; Sigma-Aldrich) and ionomycin (250 ng/ml; Sigma-Aldrich) for 6 h, and Brefeldin-A (10 μg/ml; Sigma-Aldrich) was added for the last 4 h. Intracellular labeling of cytokines was done with BD Cytofix/Cytoperm™ Plus fixation/permeabilization kit (cat. no. 555028). […] Cells were analyzed on an LSRII cytometer (BD Biosciences) using FlowJo software. […]
# 5XFAD AD-Tg mice [3] = assay: Morris water maze (MWM) in 5XFAD AD-Tg mice; details: weekly-GA vs vehicle (PBS), AD-Tg mice at 6 m
# Experimental: Mice were given three trials per day, for 4 consecutive days, to learn to find a hidden platform located 1.5 cm below the water surface in a pool (1.1 m in diameter). The water temperature was kept between 21-22° C. Water was made opaque with milk powder. Within the testing room, only distal visual shape and object cues were available to the mice to aid in location of the submerged platform. The escape latency, i.e., the time required to find and climb onto the platform, was recorded for up to 60 s. Each mouse was allowed to remain on the platform for 15 s and was then removed from the maze to its home cage. […] The inter-trial interval for each mouse was 10 min. On day 5, the platform was removed, and mice were given a single trial lasting 60 s without available escape. On days 6 and 7, the platform was placed in the quadrant opposite the original training quadrant, and the mouse was retrained for three sessions each day. Data were recorded using the EthoVision V7.1 automated tracking system (Noldus Information Technology). Statistical analysis was performed using analysis of variance (ANOVA) and the Bonferroni post-hoc test. All MWM testing was performed between 10 a.m. and 5 p.m. during the lights-off phase.
Substance,hippocampal gliosis (GFAP immunostaining) (5XFAD AD-Tg mice [1]),splenocyte Foxp3+ Treg levels (5XFAD AD-Tg mice [2]),"spatial learning/memory performance in acquisition, probe and reversal phases of the MWM (5XFAD AD-Tg mice [3])"
Diphtheria toxin [DTx],reduced astrogliosis; also recorded: reduction in hippocampal gliosis,–,–
Glatiramer acetate [GA],–,reduced,better spatial learning/memory performance
